Test results published in US20250049927A1, “MODIFIED OLIGONUCLEOTIDE-DRUG CONJUGATE AND USE THEREOF” (INTEROLIGO CORPORATION., priority 2021, published 2025).
Non-standard residues stand in square brackets, D forms with d. Residues, ends and D or L forms follow the SMILES beside them. *: point of attachment. Dolaproine = CO[C@@H]([C@@H]1CCCN1)[C@@H](C)C(=O)O; Dil = CC[C@H](C)[C@H](NC)[C@@H](CC(=O)O)OC; X1 = C[C@@H](N*)[C@@H](O)c1ccccc1; NMeV = CN[C@H](C(=O)O)C(C)C

Key:
Sprague-Dawley male rats = assay: Death of rats after intravenous administration in the pharmacokinetic study; type: in vivo; details: MMAE 4 mg/kg intravenous
Procedure: Specifically, Sprague-Dawley male rats (8 weeks old, purchased from Youngbio) were acclimatized for 1 week in the animal room of the Catholic University Songsim Campus, and then pharmacokinetic experiments were performed. Rats were induced with isoflurane, an inhalation anesthetic, and PE50 (polyethylene tubing, Clay Adams, Becton Dickinson, NJ, USA) was inserted into the carotid (for blood collection) and jugular vein (for drug administration), followed by suturing with suture, and then end portions thereof were fixed to the back of the neck. During the surgery, anesthesia was maintained using ether, and about 0.5 mL of physiological saline solution containing heparin (20 units/mL) was injected to prevent blood from coagulating in the cannula. After completing the surgery, each rat was placed in a metabolic cage and allowed to fully recover from the anesthetic (for 4-5 hours). […] All of Example 9, MMAE and gemcitabine were dissolved in physiological saline at 2 mL per kg of body weight and administered into the jugular vein at doses of 40 mg/kg, 4 mg/kg and 2 mg/kg, respectively. […]

[1] = Pharmacokinetic evaluation in rats: plasma MMAE by LC-MS/MS; type: in vivo, Sprague-Dawley male rats; details: rat, MMAE 4 mg/kg alone intravenous
Procedure: After pretreating samples by protein precipitation, plasma concentration of MMAE was analyzed using liquid chromatography-tandem mass spectrometry (hereinafter referred to as LC-MS/MS) established in the Pharmacology/Pharmacokinetics Laboratory of the Catholic University College of Pharmacy. All analysis processes were conducted under light-shielding conditions.
[…] standard products were dissolved in acetonitrile to prepare a 1 mg/mL of storage solution and store it frozen.

[2] = test system: BxPC-3 pancreatic cancer cell lines; assay: Pancreatic cancer cell growth inhibition, WST assay; type: cell-based; details: BxPC-3, 72 hours treatment, absorbance 450 nm
Procedure: The in vitro anticancer efficacy of the modified oligonucleotide-drug conjugates was verified using pancreatic cancer cell lines. Pancreatic cancer cell lines (BxPC-3) were treated with the above-described examples and comparative examples at concentrations of 0, 0.01, 0.1, 1, 10, 100, 500 and 1000 μM, and the specific IC50 measurement method and measurement results are as follows.
All cell lines were cultured in a 5% CO2 incubator at 37° C. The BxPC-3 pancreatic cancer cell lines were cultured using a medium containing 10% FBS and 1% antibiotics put into ATCC modified RPMI-1640 (Thermo Scientific, USA). The medium was replaced once every 2-3 days, and passage-cultured at a time when about 70-90% of a culture dish was filled with the cells. First, the cells were washed with PBS, then 0.05% Trypsin-EDTA was added and cultured at 37° C. for 2 minutes, and then a new medium was added to inactivate trypsin. The cells were separated from trypsin and medium using a centrifuge, then another new medium was added and passaged at a ratio of 1:4, followed by culturing the same. All cells were periodically checked for contamination by mycoplasma using a kit (Intron, Korea), and in vitro efficacy evaluation experiments were conducted using only cells in which contamination was not detected.
Using WST reagent (Dongin LS, Korea), an inhibitory effect on pancreatic cancer cell growth by drug treatment was confirmed and IC50 was measured. An orange coloring substance called formazan is produced in WST by mitochondrial dehydrogenase within cells, which is effective only in living cells. The specific test method is as follows.
The cells cultured by the above-described method were dispensed by 2×10^4 into each well of a 96-well culture vessel and cultured for 24 hours. The medium of the cells attached to the culture vessel was replaced with an ATCC modified RPMI-1640 medium containing 5% FBS, and samples of the above-described modified oligonucleotide-drug conjugates (Examples 1-7 and 9-12, and Comparative Example 1-7, respectively) were treated at concentrations of 0, 0.01, 0.1, 1, 10, 100, 500 and 1000 μM. After 72 hours, 10 μl of WST reagent was added to each well and reacted for 2 hours. The produced formazan was measured with an absorbance at 450 nm using a Glomax plate meter (Promega, USA), and IC50 was evaluated according to the protocol in the device. IC50 evaluation results and graphs illustrating the same are shown in Table 2 below and FIGS. 19 to 27 (in Table 2, M=Gemcitabine, and N=5-FdU).

[3] = test system: BxPC-3-Luc orthotopic pancreatic cancer; assay: Orthotopic pancreatic cancer animal model, patch-type collagen drug delivery system inserted at tumor site; type: in vivo, BALB/c-nude male mice; details: 2.0 mg-loading collagen patch; for IVIS whole body image: change in luminescence / dead mice: inserted once; for IVIS whole body image: change in luminescence: 4 weeks; for dead mice: 28 days
Description: To deliver the modified oligonucleotide-drug conjugates to an animal model, high-purity collagen (COLTRIX® Tendoregen, Ubiosis Co., Ltd.) dispersion (1.0%) and samples (e.g., modified oligonucleotide-drug conjugates, gemcitabine, etc.) to be tested were mixed, poured into a circular silicone mold having a diameter of 1 cm, and lyophilized to prepare a “patch-type collagen drug delivery system” in which the samples were loaded in the collagen. Amounts of the samples loaded per patch-type collagen drug delivery system are as shown in Table 3 below (in Table 3, SEQ ID NO: 16 is 5′-(Gem)(Gem)[TGG]4[TTG][TGG]5-3′, wherein Gem-Gemcitabine).
Specifically, each of sample (gemcitabine, IO101L (SEQ ID NO: 16) and modified oligonucleotide-drug conjugates (Example 5 and Example 9) to be tested was added to the high-purity collagen, and then uniformly mixed using a multi-mixer (SLRM-3, MYLAB) at 4° C. for 1 hour. Thereafter, a predetermined amount of the collagen-drug mixture was dispensed into a cylindrical silicone mold having a diameter of 1 cm and the collagen-drug mixture was primary frozen at −20° C. for 4 hours or more. After the first freezing was completed, the sample was separated from the cylindrical silicone mold and transferred to a sterile dish or plate, and then secondary frozen at −80° C. for 2 hours or more. After preliminary freezing so that the cold trap temperature of a lyophilizer was-80° C., the mixture was placed in the lyophilizer and lyophilized for more than 16 hours. The lyophilized mixture was compressed in the form of a patch using an acrylic plate, then was put into an aluminum pouch and sealed. The packaged patch-type collagen drug delivery system was refrigerated at 4° C.
The frozen cancer cell line (BxPC-3-Luc) (Asan Institute for Life Sciences) was thawed, and then cultured in an RPMI1640 medium (Biowest, Cat #. L0498-100) in which 10% fetal bovine serum (Biowest, Cat #. S1480) and 1% antibiotic (Gibco, Cat #. 15240062) were supplied at 37° C. under 5% CO2 condition. The thawed cells were cultured for one week to confirm that there were no problems with the shape, survival rate, and doubling time.
Cancer cells having a cell survival rate of 95% or more were prepared in order to transplant them into mice. The cells were harvested using trypsin, and prepared so as to transplant them into 5×10^5 cells/25 μl/mouse by being turbid in RPMI 1640 media. 6-week old BALB/c-nude male mice stabilized for 1 week (purchased from Jabio, Korea) were subjected to abdominal anesthesia, and the pancreas was taken out by dissecting the abdominal region of each anesthetized mouse and cells of 5×10^5 cells/25 μl were transplanted. After 2 weeks, tumor formation was confirmed through luciferase imaging. […] The patch-type collagen drug delivery system prepared in the above (1) was inserted (intra-abdominal cavity insertion using surgery) into the tumor site of each mouse in the respective groups. All animal experiments included in the present test were performed according to the Institutional Animal Care and Use Committee (IACUC) of the Asan Institute for Life Sciences [2022-14-058].
After inserting the patch-type collagen drug delivery system, changes in the tumor size were observed using IVIS imaging equipment (Xenogen IVIS spectrum system; Caliper Life Science, Inc., Hopkinton, MA) at an interval of 3 times a week for 4 weeks to check the body weight. […]

Molecule | death of tested rats (Sprague-Dawley male rats) | AUC of MMAE up to 120 minutes higher than Example 9 (IO176) 40 mg/kg group [1] | plasma concentration of MMAE at 1 minute after administration [1] [ng/mL] | AUCt of MMAE ([1]; to final quantification time) [µg·min/mL] | AUC0-120 of MMAE ([1]; up to 120 minutes) [µg·min/mL] | IC50 [2] [nM] | effect of inhibiting tumor (IVIS images, tumor size and weight) [3] | IVIS whole body image: change in luminescence [3] | dead mice [3]
CC[C@H](C)[C@@H]([C@@H](CC(=O)N1CCC[C@H]1[C@H](OC)[C@@H](C)C(=O)N[C@H](C)[C@@H](O)c1ccccc1)OC)N(C)C(=O)[C@@H](NC(=O)[C@@H](NC)C(C)C)C(C)C [MMAE, Monomethyl auristatin E] (H-[NMeV]V[Dil][Dolaproine]-X1) | all tested 7 rats were died | about 9.70 times | 29640 ± 7190 | 128 ± 16.1 | 71.7 ± 9.61 |  |  |  | 
Example 5 (GGTGGTGGTGGNNGNGGTGGTGGTGG; paclitaxel via acrylamide-C6-NH-succinic acid linker on U; modified_base 13 OTHER; deoxyuridine(dU); modified_base 12 OTHER; gemcitabine; modified_base 15 OTHER) |  |  |  |  |  | 100 | excellent effect of inhibiting tumor appeared | changes in the fluorescence were decreased | no dead mouse was observed
IO101L: SEQ ID NO: 16, 5′-(Gem)(Gem)[TGG]4[TTG][TGG]5-3′, Gem=Gemcitabine (DNA NNTGGTGGTGGTGGTTGTGGTGGTGGTGGTGG; two 5' gemcitabine nucleotides; modified_base 1 OTHER; gemcitabine; modified_base 2 OTHER) |  |  |  |  |  |  |  | luminescence was gradually increased over time | there were dead mice
